Experiments:
Assay in all cases: relative viability (nuclei count vs DMSO), 5 days (fraction); higher = more cells survive
LU99A = system: LU99A
Method in brief: (§1)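 Relative viability divides the nuclei count in treated wells by that in vehicle wells. Lung cancer cell lines were seeded in 1536-well plates, dosed by pin tool the next day, and fixed and stained after 5 days in one step with final 0.05% Triton X-100, 1% formaldehyde and 1 ug/ml Hoechst. Dosing was a single drug or a fixed anchor-drug dose plus five library-drug doses (not always all listed) in √10 steps, and values are medians of duplicate plates imaged at 4×.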

HCC-15 = system: HCC-15
Method in brief: as §1

NCI-H522 = system: NCI-H522
Method in brief: as §1

PC-14 = system: PC-14
Method in brief: as §1

NCI-H838 = system: NCI-H838
Method in brief: as §1

NCI-H2009 = system: NCI-H2009
Method in brief: as §1

NCI-H2126 = system: NCI-H2126
Method in brief: as §1

NCI-H358 = system: NCI-H358
Method in brief: as §1

NCI-H1651 = system: NCI-H1651
Method in brief: as §1

NCI-H2342 = system: NCI-H2342
Method in brief: as §1

HARA = system: HARA
Method in brief: as §1

SW 1573 = system: SW 1573
Method in brief: as §1

NCI-H650 = system: NCI-H650
Method in brief: as §1

UMC-11 = system: UMC-11
Method in brief: as §1

NCI-H2347 = system: NCI-H2347
Method in brief: as §1

HCC-78 = system: HCC-78
Method in brief: as §1

EPLC-272H = system: EPLC-272H
Method in brief: as §1

LC-2-ad = system: LC-2-ad
Method in brief: as §1

NCI-H1915 = system: NCI-H1915
Method in brief: as §1

NCI-H1993 = system: NCI-H1993
Method in brief: as §1

NCI-H2085 = system: NCI-H2085
Method in brief: as §1

NCI-H460 = system: NCI-H460
Method in brief: as §1

ABC-1 = system: ABC-1
Method in brief: as §1

COR-L23 = system: COR-L23
Method in brief: as §1

In the case of `COc1cc(N2CCC(C(N)=O)CC2)ccc1Nc1nc(N)c(Cl)c(Nc2ccccc2S(=O)(=O)C(C)C)n1` [HG-5-88-01] + Nc1ncn([C@H]2C[C@H](O)[C@@H](CO)O2)c(=O)n1 [Decitabine] (partner 2 µM), the relative viability (LU99A; first compound 0.04 µM) was 0.896, the relative viability (LU99A; first compound 0.1265 µM) was 0.929 and the relative viability (LU99A; first compound 0.4 µM) was 0.915. For the same compound, the relative viability (LU99A; first compound 1.265 µM) was 0.93, the relative viability (LU99A; first compound 4 µM) was 0.839 and the relative viability (HCC-15; first compound 0.04 µM) was 0.682. It also gave a relative viability (HCC-15; first compound 0.1265 µM) of 0.709, a relative viability (HCC-15; first compound 0.4 µM) of 0.487 and a relative viability (HCC-15; first compound 1.265 µM) of 0.572. For the same compound, the relative viability (HCC-15; first compound 4 µM) was 0.477, the relative viability (NCI-H522; first compound 0.04 µM) was 0.702 and the relative viability (NCI-H522; first compound 0.1265 µM) was 0.773. It also gave a relative viability (NCI-H522; first compound 0.4 µM) of 0.69, a relative viability (NCI-H522; first compound 1.265 µM) of 0.687 and a relative viability (NCI-H522; first compound 4 µM) of 0.649. It also gave a relative viability (PC-14; first compound 0.04 µM) of 0.215, a relative viability (PC-14; first compound 0.1265 µM) of 0.231 and a relative viability (PC-14; first compound 0.4 µM) of 0.235. For the same compound, the relative viability (PC-14; first compound 1.265 µM) was 0.206, the relative viability (PC-14; first compound 4 µM) was 0.0628 and the relative viability (NCI-H838; first compound 0.04 µM) was 0.46. It also gave a relative viability (NCI-H838; first compound 0.1265 µM) of 0.467, a relative viability (NCI-H838; first compound 0.4 µM) of 0.491 and a relative viability (NCI-H838; first compound 1.265 µM) of 0.407. The relative viability (NCI-H838; first compound 4 µM) was 0.341, the relative viability (NCI-H2009; first compound 0.04 µM) was 0.355 and the relative viability (NCI-H2009; first compound 0.1265 µM) was 0.384. For the same compound, the relative viability (NCI-H2009; first compound 0.4 µM) was 0.338, the relative viability (NCI-H2009; first compound 1.265 µM) was 0.314 and the relative viability (NCI-H2009; first compound 4 µM) was 0.377. It also gave a relative viability (NCI-H2126; first compound 0.04 µM) of 0.603, a relative viability (NCI-H2126; first compound 0.1265 µM) of 0.586 and a relative viability (NCI-H2126; first compound 0.4 µM) of 0.568. The relative viability (NCI-H2126; first compound 1.265 µM) was 0.6, the relative viability (NCI-H2126; first compound 4 µM) was 0.556 and the relative viability (NCI-H358; first compound 0.04 µM) was 0.208. The relative viability (NCI-H358; first compound 0.1265 µM) was 0.229, the relative viability (NCI-H358; first compound 0.4 µM) was 0.285 and the relative viability (NCI-H358; first compound 1.265 µM) was 0.192. It also gave a relative viability (NCI-H358; first compound 4 µM) of 0.125, a relative viability (NCI-H1651; first compound 0.04 µM) of 0.536 and a relative viability (NCI-H1651; first compound 0.1265 µM) of 0.635. It also gave a relative viability (NCI-H1651; first compound 0.4 µM) of 0.717, a relative viability (NCI-H1651; first compound 1.265 µM) of 0.581 and a relative viability (NCI-H1651; first compound 4 µM) of 0.714. The relative viability (NCI-H2342; first compound 0.04 µM) was 0.751, the relative viability (NCI-H2342; first compound 0.1265 µM) was 0.808 and the relative viability (NCI-H2342; first compound 0.4 µM) was 0.808. The relative viability (NCI-H2342; first compound 4 µM) was 0.801, the relative viability (HARA; first compound 0.04 µM) was 0.581 and the relative viability (HARA; first compound 0.1265 µM) was 0.504. It also gave a relative viability (HARA; first compound 0.4 µM) of 0.663, a relative viability (HARA; first compound 1.265 µM) of 0.451 and a relative viability (HARA; first compound 4 µM) of 0.494. For the same compound, the relative viability (SW 1573; first compound 0.04 µM) was 0.454, the relative viability (SW 1573; first compound 0.1265 µM) was 0.593 and the relative viability (SW 1573; first compound 0.4 µM) was 0.423. For the same compound, the relative viability (SW 1573; first compound 1.265 µM) was 0.428, the relative viability (SW 1573; first compound 4 µM) was 0.458 and the relative viability (NCI-H650; first compound 0.04 µM) was 0.357. It also gave a relative viability (NCI-H650; first compound 0.1265 µM) of 0.328, a relative viability (NCI-H650; first compound 0.4 µM) of 0.435 and a relative viability (NCI-H650; first compound 1.265 µM) of 0.366. The relative viability (NCI-H650; first compound 4 µM) was 0.306, the relative viability (UMC-11; first compound 0.04 µM) was 0.638 and the relative viability (UMC-11; first compound 0.1265 µM) was 0.706. It also gave a relative viability (UMC-11; first compound 0.4 µM) of 0.604, a relative viability (UMC-11; first compound 1.265 µM) of 0.526 and a relative viability (UMC-11; first compound 4 µM) of 0.672. The relative viability (NCI-H2347; first compound 0.04 µM) was 0.632, the relative viability (NCI-H2347; first compound 0.1265 µM) was 0.637 and the relative viability (NCI-H2347; first compound 0.4 µM) was 0.729. For the same compound, the relative viability (NCI-H2347; first compound 1.265 µM) was 0.672, the relative viability (NCI-H2347; first compound 4 µM) was 0.645 and the relative viability (HCC-78; first compound 0.04 µM) was 0.696. The relative viability (HCC-78; first compound 0.1265 µM) was 0.598, the relative viability (HCC-78; first compound 0.4 µM) was 0.62 and the relative viability (HCC-78; first compound 1.265 µM) was 0.411. For the same compound, the relative viability (HCC-78; first compound 4 µM) was 0.432, the relative viability (EPLC-272H; first compound 0.04 µM) was 0.32 and the relative viability (EPLC-272H; first compound 0.1265 µM) was 0.371. It also gave a relative viability (EPLC-272H; first compound 0.4 µM) of 0.47, a relative viability (EPLC-272H; first compound 1.265 µM) of 0.266 and a relative viability (EPLC-272H; first compound 4 µM) of 0.117. The relative viability (LC-2-ad; first compound 0.04 µM) was 0.782, the relative viability (LC-2-ad; first compound 0.1265 µM) was 0.719 and the relative viability (LC-2-ad; first compound 0.4 µM) was 0.771. It also gave a relative viability (LC-2-ad; first compound 1.265 µM) of 0.814, a relative viability (LC-2-ad; first compound 4 µM) of 0.855 and a relative viability (NCI-H1915; first compound 0.04 µM) of 0.254. The relative viability (NCI-H1915; first compound 0.1265 µM) was 0.279, the relative viability (NCI-H1915; first compound 0.4 µM) was 0.275 and the relative viability (NCI-H1915; first compound 1.265 µM) was 0.248. It also gave a relative viability (NCI-H1915; first compound 4 µM) of 0.254, a relative viability (NCI-H1993; first compound 0.04 µM) of 0.583 and a relative viability (NCI-H1993; first compound 0.1265 µM) of 0.709. The relative viability (NCI-H1993; first compound 0.4 µM) was 0.586, the relative viability (NCI-H1993; first compound 4 µM) was 0.545 and the relative viability (NCI-H2085; first compound 0.04 µM) was 0.6. The relative viability (NCI-H2085; first compound 0.1265 µM) was 0.625, the relative viability (NCI-H2085; first compound 0.4 µM) was 0.582 and the relative viability (NCI-H2085; first compound 1.265 µM) was 0.544. For the same compound, the relative viability (NCI-H2085; first compound 4 µM) was 0.607, the relative viability (NCI-H460; first compound 0.04 µM) was 0.478 and the relative viability (NCI-H460; first compound 0.1265 µM) was 0.493. The relative viability (NCI-H460; first compound 0.4 µM) was 0.494, the relative viability (NCI-H460; first compound 1.265 µM) was 0.578 and the relative viability (NCI-H460; first compound 4 µM) was 0.419. The relative viability (ABC-1; first compound 0.04 µM) was 0.998, the relative viability (ABC-1; first compound 0.1265 µM) was 1.09 and the relative viability (ABC-1; first compound 0.4 µM) was 1.1. It also gave a relative viability (ABC-1; first compound 1.265 µM) of 0.884, a relative viability (ABC-1; first compound 4 µM) of 0.946 and a relative viability (COR-L23; first compound 0.04 µM) of 0.405. It also gave a relative viability (COR-L23; first compound 0.1265 µM) of 0.531, a relative viability (COR-L23; first compound 0.4 µM) of 0.543 and a relative viability (COR-L23; first compound 1.265 µM) of 0.379. For the same compound, the relative viability (COR-L23; first compound 4 µM) was 0.391.

— the supplement of paper PMC10307832
